Laboratory results as given in ChEMBL document CHEMBL5331071, “Structure-activity relationship study of amidobenzimidazole derivatives as stimulator of interferon genes (STING) agonists” (Eur J Med Chem, 2023).

Legend:
[1] = target: T1, Stimulator of interferon genes protein (Homo sapiens, UniProt Q86WV6); test: Agonist activity at STING in human THP1-Dual cells incubated for 20 hrs by Quanti-luc reagent based assay; assay type: cell-based
[2] = target: T1, Stimulator of interferon genes protein; test: Agonist activity at STING in human […] KO-STING cells incubated for 20 hrs by Quanti-luc reagent based assay; assay type: cell-based, THP1-Dual KO-STING
THP1-Dual = test: Cytotoxicity against human THP1-Dual habouring STING assessed as inhibition of cell growth by MTS assay; assay type: functional, cell-based
[3] = Cytotoxicity against human THP1-Dual KO-STING cells assessed as inhibition of cell growth by MTS assay; assay type: functional, cell-based

T1 sequence (Q86WV6 whole entry): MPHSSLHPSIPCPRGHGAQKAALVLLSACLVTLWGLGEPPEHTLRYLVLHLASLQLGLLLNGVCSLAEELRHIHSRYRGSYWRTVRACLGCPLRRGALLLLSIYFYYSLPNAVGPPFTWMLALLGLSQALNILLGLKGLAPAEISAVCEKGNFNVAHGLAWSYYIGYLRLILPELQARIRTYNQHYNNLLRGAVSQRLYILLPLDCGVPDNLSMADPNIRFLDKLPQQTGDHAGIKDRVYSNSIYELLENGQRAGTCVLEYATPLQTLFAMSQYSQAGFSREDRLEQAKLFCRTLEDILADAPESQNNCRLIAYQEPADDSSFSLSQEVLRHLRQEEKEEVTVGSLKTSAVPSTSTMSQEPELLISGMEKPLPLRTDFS

Structure (SMILES)	EC50 [1]	EC50 [2]	IC50 (THP1-Dual)	IC50 [3]
CCn1nc(C)cc1C(=O)Nc1nc2cc(C(N)=O)cc(OC)c2n1CCCN1CCN(Cc2ccc3ccccc3c2)C(=O)C1	> 100 µM	> 100 µM	> 100 µM	> 100 µM
CCn1nc(C)cc1C(=O)Nc1nc2cc(C(N)=O)cc(OC)c2n1C/C=C/CNC(=O)c1ccc(C(F)(F)F)cc1	> 100 µM	> 100 µM	> 100 µM	> 100 µM
CCn1nc(C)cc1C(=O)Nc1nc2cc(C(N)=O)cc(OC)c2n1NCCCC(=O)N(C)Cc1ccccc1	11.2 µM	> 100 µM	> 100 µM	> 100 µM
CCn1nc(C)cc1C(=O)Nc1nc2cc(C(N)=O)cc(OC)c2n1C/C=C/CNC(=O)Cc1cnccn1	> 100 µM	> 100 µM	> 100 µM	> 100 µM
CCn1nc(C)cc1C(=O)Nc1nc2cc(C(N)=O)cc(OC)c2n1C/C=C/CNC(=O)c1ccccc1	47.1 µM	> 100 µM	> 100 µM	> 100 µM
CCn1nc(C)cc1C(=O)Nc1nc2cc(C(N)=O)cc(OC)c2n1Cc1cn(Cc2ccc3ccccc3c2)nn1	> 100 µM	> 100 µM	> 100 µM	> 100 µM
CCn1nc(C)cc1C(=O)Nc1nc2cc(C(N)=O)cc(OC)c2n1NCCCC(=O)NCc1ccc(Cl)cc1	3.22 µM	> 100 µM	> 100 µM	> 100 µM
CCn1nc(C)cc1C(=O)Nc1nc2cc(C(N)=O)cc(OC)c2n1Cc1cn(CCc2ccccc2)nn1	> 100 µM	> 100 µM	> 100 µM	> 100 µM
CCn1nc(C)cc1C(=O)Nc1nc2cc(C(N)=O)cc(OC)c2n1NCCCC(=O)NCc1ccccc1F	4.17 µM	> 100 µM	> 100 µM	> 100 µM
CCn1nc(C)cc1C(=O)Nc1nc2cc(C(N)=O)cc(OC)c2n1C/C=C/CNC(=O)c1cc(C(F)(F)F)cc(C(F)(F)F)c1	> 100 µM	> 100 µM	> 100 µM	> 100 µM
CCn1nc(C)cc1C(=O)Nc1nc2cc(C(N)=O)cc(OC)c2n1C/C=C/CNC(=O)c1cnc2ccccc2c1	> 100 µM	> 100 µM	> 100 µM	> 100 µM
CCn1nc(C)cc1C(=O)Nc1nc2cc(C(N)=O)cc(OC)c2n1C/C=C/CNC1CCC(N(C)C)CC1 (stereo unspecified)	> 100 µM	> 100 µM	> 100 µM	> 100 µM
CCn1nc(C)cc1C(=O)Nc1nc2cc(C(N)=O)cc(OC)c2n1C/C=C/CNc1ncc(C(N)=O)cn1	> 100 µM	> 100 µM	> 100 µM	> 100 µM
CCn1nc(C)cc1C(=O)Nc1nc2cc(C(N)=O)cc(OC)c2n1C/C=C/CNC(=O)c1ccc2ncccc2c1	> 100 µM	> 100 µM	> 100 µM	> 100 µM
CCn1nc(C)cc1C(=O)Nc1nc2cc(C(N)=O)cc(OCC3COC3)c2n1NCCCNC(=O)c1ccc2ccccc2c1	39.4 µM	> 100 µM	11.3 µM	18.2 µM
CCn1nc(C)cc1C(=O)Nc1nc2cc(C(N)=O)cc(OC)c2n1CCCC(=O)NCc1ccc2ccccc2c1	7.04 µM	> 100 µM	> 100 µM	> 100 µM
CCn1nc(C)cc1C(=O)Nc1nc2cc(C(N)=O)cc(OC)c2n1C/C=C/Cn1c(=O)[nH]c2cc(C(N)=O)ccc21	> 100 µM	> 100 µM	> 100 µM	> 100 µM
CCn1nc(C)cc1C(=O)Nc1nc2cc(C(N)=O)cc(OC)c2n1NCCCC(=O)NCc1ccc(C(F)(F)F)cc1	13 µM	> 100 µM	> 100 µM	> 100 µM
CCn1nc(C)cc1C(=O)Nc1nc2cc(C(N)=O)cc(OC)c2n1C/C=C/Cn1c(C(F)(F)F)nc2cc(C(N)=O)ccc21	> 100 µM	> 100 µM	> 100 µM	> 100 µM
CCn1nc(C)cc1C(=O)Nc1nc2cc(C(N)=O)cc(OC)c2n1CCCC(=O)Nc1ccccc1	9.81 µM	> 100 µM	> 100 µM	> 100 µM
CCn1nc(C)cc1C(=O)Nc1nc2cc(C(N)=O)cc(OC)c2n1NCCCC(=O)NCc1ccc(OC)cc1	4.1 µM	> 100 µM	> 100 µM	> 100 µM
CCn1nc(C)cc1C(=O)Nc1nc2cc(C(N)=O)cc(OCC3CC3)c2n1NCCCC(=O)NCc1ccc(F)cc1	1.42 µM	> 100 µM	> 100 µM	> 100 µM
CCn1nc(C)cc1C(=O)Nc1nc2cc(C(N)=O)cc(OCCCN3CCOCC3)c2n1NCCCNC(=O)c1ccc2ccccc2c1	2.19 µM	> 100 µM	18.6 µM	28.1 µM

Now from value to compound, other results behind:

EC50 [1]	EC50 [2]	Structure (SMILES)	IC50 (THP1-Dual)	IC50 [3]
5.14 µM	> 100 µM	CCn1nc(C)cc1C(=O)Nc1nc2cc(C(N)=O)cc(OC)c2n1NCCCC(=O)NCc1cc(F)cc(F)c1	> 100 µM	> 100 µM
> 100 µM	> 100 µM	CCn1nc(C)cc1C(=O)Nc1nc2cc(C(N)=O)cc(OC)c2n1C/C=C/CNC(=O)c1cnc(C(F)(F)F)cn1	> 100 µM	> 100 µM
> 100 µM	> 100 µM	CCn1nc(C)cc1C(=O)Nc1nc2cc(C(N)=O)cc(OC)c2n1CCCN1CCC(C(=O)Nc2ccc3ccccc3c2)CC1	> 100 µM	> 100 µM
> 100 µM	> 100 µM	CCn1nc(C)cc1C(=O)Nc1nc2cc(C(N)=O)cc(OC)c2n1C/C=C/CNC(=O)NCc1ccccc1	> 100 µM	> 100 µM
> 100 µM	> 100 µM	CCn1nc(C)cc1C(=O)Nc1nc2cc(C(N)=O)cc(OC)c2n1C/C=C/CNC(=O)c1ccc(Cl)cc1	> 100 µM	> 100 µM
> 100 µM	> 100 µM	CCn1nc(C)cc1C(=O)Nc1nc2cc(C(N)=O)cc(OC)c2n1C/C=C/CNC(=O)c1ccccn1	> 100 µM	> 100 µM
0.93 µM	> 100 µM	CCn1nc(C)cc1C(=O)Nc1nc2cc(C(N)=O)cc(OC)c2n1CCCNC(=O)c1ccc2ccccc2c1	10.8 µM	> 100 µM
3.57 µM	> 100 µM	CCn1nc(C)cc1C(=O)Nc1nc2cc(C(N)=O)cc(OC)c2n1NCCCC(=O)NCc1ccc(F)cc1F	> 100 µM	> 100 µM
> 100 µM	> 100 µM	CCn1nc(C)cc1C(=O)Nc1nc2cc(C(N)=O)cc(OC)c2n1C/C=C/CNC(=O)c1ccc(F)cc1	> 100 µM	> 100 µM
> 100 µM	> 100 µM	CCn1nc(C)cc1C(=O)Nc1nc2cc(C(N)=O)cc(OC)c2n1C/C=C/CNC(=O)C1CCCC1	> 100 µM	> 100 µM
> 100 µM	> 100 µM	CCn1nc(C)cc1C(=O)Nc1nc2cc(C(N)=O)cc(OC)c2n1C/C=C/CNC(=O)Cc1ccc(C(F)(F)F)cc1	> 100 µM	> 100 µM
> 100 µM	> 100 µM	CCn1nc(C)cc1C(=O)Nc1nc2cc(C(N)=O)cc(OC)c2n1C/C=C/Cn1c(C)nc2cc(C(N)=O)ccc21	> 100 µM	> 100 µM
40.9 µM	> 100 µM	CCn1nc(C)cc1C(=O)Nc1nc2cc(C(N)=O)cc(OC)c2n1NCCCC(=O)NCc1ccc(-c2ccccc2)cc1	> 100 µM	> 100 µM
9.73 µM	> 100 µM	CCn1nc(C)cc1C(=O)Nc1nc2cc(C(N)=O)cc(OCCCN3CCOCC3)c2n1NCCCC(=O)NCc1ccc(F)cc1	> 100 µM	> 100 µM
> 100 µM	> 100 µM	CCn1nc(C)cc1C(=O)Nc1nc2cc(C(N)=O)cc(OC)c2n1C/C=C/CNC1CCOCC1	> 100 µM	> 100 µM
> 100 µM	> 100 µM	CCn1nc(C)cc1C(=O)Nc1nc2cc(C(N)=O)cc(OC)c2n1C/C=C/CNC(=O)Nc1ccc2ccccc2c1	> 100 µM	> 100 µM
> 100 µM	> 100 µM	CCn1nc(C)cc1C(=O)Nc1nc2cc(C(N)=O)cc(OC)c2n1CCOCCNC(=O)c1ccc(OC)cc1	> 100 µM	> 100 µM
> 100 µM	> 100 µM	CCn1nc(C)cc1C(=O)Nc1nc2cc(C(N)=O)cc(OC)c2n1C/C=C/CNc1ccc(C(N)=O)cc1[N+](=O)[O-]	> 100 µM	> 100 µM
> 100 µM	> 100 µM	CCn1nc(C)cc1C(=O)Nc1nc2cc(C(N)=O)cc(OC)c2n1CCCN1CCC(C(=O)Nc2ccccc2)CC1	> 100 µM	> 100 µM
7.13 µM	> 100 µM	CCn1nc(C)cc1C(=O)Nc1nc2cc(C(N)=O)cc(OCC3COC3)c2n1NCCCC(=O)NCc1ccc(F)cc1	> 100 µM	> 100 µM
5.28 µM	> 100 µM	CCn1nc(C)cc1C(=O)Nc1nc2cc(C(N)=O)cc(OC)c2n1NCCCC(=O)NCc1ccc(Br)cc1F	> 100 µM	> 100 µM
> 100 µM	> 100 µM	CCn1nc(C)cc1C(=O)Nc1nc2cc(C(N)=O)cc(OC)c2n1CCOCCNC(=O)c1ccc2ccccc2c1	> 100 µM	> 100 µM
> 100 µM	> 100 µM	CCn1nc(C)cc1C(=O)Nc1nc2cc(C(N)=O)cc(OC)c2n1C/C=C/CNC(=O)c1cnccn1	> 100 µM	> 100 µM
0.53 µM	> 100 µM	CCn1nc(C)cc1C(=O)Nc1nc2cc(C(N)=O)cc(OCCCOC)c2n1NCCCNC(=O)c1ccc2ccccc2c1	10.6 µM	14.8 µM
> 100 µM	> 100 µM	CCn1nc(C)cc1C(=O)Nc1nc2cc(C(N)=O)cc(OC)c2n1C/C=C/CNC(=O)c1cc(F)nc(F)c1	> 100 µM	> 100 µM
> 100 µM	> 100 µM	CCn1nc(C)cc1C(=O)Nc1nc2cc(C(N)=O)cc(OC)c2n1NCCCNC(=O)Nc1ccc2ccccc2c1	> 100 µM	> 100 µM
